This is an account of results in PMC7997578, “Design, Synthesis, Dynamic Docking, Biochemical Characterization, and in Vivo Pharmacokinetics Studies of Novel Topoisomerase II Poisons with Promising Antiproliferative Activity” (Journal of Medicinal Chemistry, 2020).

Structures are written as SMILES. In brackets after ≈: the same amount, converted by molar mass.

This data set can be described thus: aqueous thermodynamic solubility. It counts as physicochemical. The settings on record: PBS pH 7.4, 24 h, 25°C. As to the method:
3. Aqueous t herm odynam ic solu bili ty
The thermodynamic solubility of 3f was determined by addition of Phosphate Buffered Saline (PBS) at pH 7. 4 to an exces s of solid compound.
The assay was performed by incubation of an aliquot of 2. 5mg of test compound in 500µL of PBS at pH 7. 4. The suspension was shaken at 300 RPM for 24h at 25°C. At the end of the incubation period, the saturated solution was filtered and analyzed by UPLC/MS for the quantification of dissolved compound (in µM) by UV at a specific wavelength ( λmax of the test compound). The analyses were performed on a Waters ACQUITY UPLC/MS SQD system equipped with an ESI ion source. The analyses were run on an ACQUITY UPLC BEH C 18 column (50x2. 1mmI D, particle size 1. 7µm) with a VanGuard BEH C 18 pr e-column (5x2. 1mmID, particle size 1. 7µm), using H 2O + 0. 1% HCOOH (A) and CH 3CN + 0. 1% HCOOH (B) as mobile phase.
4. Plasm a Protei n Bindi ng
The assay was conducted in triplicate in human and mouse plasma. An appropriate volume of plasma was spiked with a known amount of 10mM DMSO stock solution of the test compound, thus reaching the incubation concentrations of 0. 5, 1 and 5 µM. […] At this point, the supernatants were ready for injections in the UPLC -MS/ MS system. […] Plasma protein binding was calculated applying appropriate corrections to compensate for dilutions during sampling.

Turning to `O=C(Nc1cccc(OC(F)(F)F)c1)c1c(O)n(-c2ccccc2)c(=S)n(-c2ccccc2)c1=O` [3f, 6-Hydroxy-4-oxo-1,3-diphenyl-2-thioxo-N-(3-(trifluoromethoxy)phenyl)-1,2,3,4-tetrahydropyrimidine-5-carboxamide], the solubility (thermodynamic) at 24 h came out at 30 µM (≈ 15 µg/mL).
